Data from patent US4883796A, “Oxime ethers of 2,6-dioxabicyclo(3.3.0)octanones, and compositions and methods for treatment of a cardiac disease or circulatory with them” (Heinrich Mack Nachf., priority 1987, dated 1989).

Key:
isolated aorta strips [1] = assay: inhibition of potassium chloride-induced contractions on isolated aorta strips, rat; format: cell-based; conditions: read-out: ED50, inhibition of potassium chloride-induced contractions
isolated aorta strips [2] = assay: inhibition of potassium chloride-induced contractions on isolated aorta strips, rabbit; format: cell-based; conditions: read-out: ED50, inhibition of potassium chloride-induced contractions
[3] = Cardiovascular effects after i.d. administration to narcotised rats with opened thorax and artificial respiration; format: in vivo; conditions: 30 mg/kg i.d.
Excerpt: |Cardiovascular effects of example 3 after i.d. administration to |narcotised rats (Pentobarbital) with opened thorax and artificial |respiration.

[4] = Influence on systolic arterial pressure and heart rate of conscious normotensive beagle dogs, perorally; format: in vivo
Protocol: Influence on the systolic arterial pressure (SAP) and the heart rate
(HR) of concious normotensive beagle dogs. Substance was administered

[5] = orientating toxicity, mice, perorally; conditions: mouse, in vivo, po, read-out: dose withstood without clinical symptoms and without fatalities
[6] = test system: Lypressin-induced T-wave elevation in the ECG; assay: Influence on the Lypressin-induced T-wave elevation in the ECG of narcotised rats; format: in vivo; conditions: for ED50: Rattus norvegicus, po, 0.25 h, perorally 15 minutes before Lypressin; for Length of action at ED50-Dose: perorally
Protocol: Influence on the T-wave elevation in the ECG of narcotised
rats, which was induced by intravenous bolus injection of
Lypressin. The substances were administered perorally 15
minutes and at various times before the Lypressin injection

[7] = Reduction of the arterial mean pressure in narcotised rabbits, i.d.; format: in vivo; conditions: Oryctolagus cuniculus, intraduodenal, read-out: ED30 (mmHg), reduction of the arterial mean pressure
Protocol: Reduction of the arterial mean pressure in narcotised rabbits.
The substance was administered i.d.

Isoprenaline tachycardia = assay: Inhibition of Isoprenaline tachycardia in narcotised, despinalised rats; format: in vivo; conditions: Rattus norvegicus, prophylactic
Excerpt: Inhibition of Isoprenaline tachycardia in narcotised,
despinalised rats after prophylactic, intravenous or
intraduodenal application

[8] = Cardiovascular effects after intravenous administration to narcotised rats with opened thorax and artificial respiration; format: in vivo; conditions: 1.0 mg/kg i.v.
Excerpt: |Cardiovascular effects of the compound of example 3 after intravenous |administration to narcotised rats (Pentobarbital) with opened thorax and |artificial respiration.

CC(C)NCC(O)CON=C1COC2C(O[N+](=O)[O-])COC12 (stereo not drawn) [Example 2, 4-(2-Hydroxy-3-isopropylamino-propyl)-oximino-2,6-dioxabicyclo[3.3.0]octan-8-exo-ol-nitrate]
IC50 (isolated aorta strips [1]): 472 µM | IC50 (isolated aorta strips [2]): 4000 µM

CC(C)(C)NCC(O)CON=C1CO[C@H]2[C@@H]1OC[C@H]2O[N+](=O)[O-] (stereo partly drawn) [Example 3, 4-(3-tert.-Butylamino-2-hydroxy-propyl)-oximino-2,6-dioxabicyclo[3.3.0]octan-8-endo-ol-nitrate]
BAF, changes [3]: -23 ± 5 mL/min | BAF, length of action [3]: > 167 min | BAF, maximum efficacy [3]: 42 ± 8 min | CO, changes [3]: -0.09 ± 0.02 L/min | CO, length of action [3]: > 167 min | CO, maximum efficacy [3]: 62 ± 8 min | HR changes [3]: -23 ± 4 beats/min | HR, length of action [3]: > 167 min | HR, maximum efficacy [3]: 78 ± 44 min | LV dp/dt, changes [3]: -879 ± 90 mmHg/s | LV dp/dt, length of action [3]: > 132 min | LV dp/dt, maximum efficacy [3]: 76 ± 10 min | LVEDP, changes [3]: -2.3 ± 0.9 mmHg | LVEDP, length of action [3]: 77 ± 8 min | LVEDP, maximum efficacy [3]: 38 ± 27 min | LVP, changes [3]: -38 ± 11 mmHg | LVP, length of action [3]: > 153 min | LVP, maximum efficacy [3]: 65 ± 17 min | MAP, changes [3]: -25 ± 4 mmHg | MAP, length of action [3]: > 167 min | MAP, maximum efficacy [3]: 58 ± 12 min | PAP, changes [3]: -4.3 ± 5 mmHg | PAP, length of action [3]: 111 ± 16 min | PAP, maximum efficacy [3]: 33 ± 11 min | SV, changes [3]: +0.5 ± 0.07 ml/min | SV, length of action [3]: > 167 min | SV, maximum efficacy [3]: 33 ± 3 min | TPVR, changes [3]: -23 ± 3 mmHg/ml | TPVR, length of action [3]: > 136 min | TPVR, maximum efficacy [3]: 39 ± 5 min | CO (cardiac minute volume), efficacy of the substance ([3]; previous value 0.75 ± 0.03): 0.66 ± 0.05 L/min | LVEDP (left ventricular end diastolic pressure), efficacy of the substance ([3]; previous value 3.8 ± 1): 1.5 ± 2 mmHg | SV (cardiac output), efficacy of the substance ([3]; previous value 5.3 ± 0.4): 5.8 ± 0.3 mL/min | PAP (blood pressure in the A. pulmonalis), efficacy of the substance ([3]; previous value 22.8 ± 6): 18.5 ± 7 mmHg | BAF (blood flow in the A femoralis), efficacy of the substance ([3]; previous value 70 ± 4): 47 ± 23 mL/min | MAP (mean arterial blood pressure), efficacy of the substance ([3]; previous value 116 ± 7): 91 ± 12 mmHg | LVP (left ventricular blood pressure), efficacy of the substance ([3]; previous value 133 ± 9): 95 ± 10 mmHg | HR (cardiac frequency), efficacy of the substance ([3]; previous value 142 ± 5): 119 ± 7 beats/min | TPVR (total peripheral vascular resistence), efficacy of the substance ([3]; previous value 155 ± 8): 132 ± 10 mmHg/ml | LV dp/dt (maximum left ventricular pressure increase rate), efficacy of the substance ([3]; previous value 2345 ± 100): 1466 ± 189 mmHg/s | HR changes ([4]; 5.0 mg/kg perorally, 0.5 h): -13 ± 2 Schl/M | SAP changes ([4]; 5.0 mg/kg perorally, 0.5 h): -28 ± 6 mmHg | HR (heart rate) ([4]; 5.0 mg/kg perorally, 0.5 h, 0 h value 95 ± 8): 82 ± 7 Schl/M | SAP (systolic arterial pressure) ([4]; 5.0 mg/kg perorally, 0.5 h, 0 h value 137 ± 7): 109 ± 4 mmHg | HR changes ([4]; 5.0 mg/kg perorally, 1 h): -20 ± 5 Schl/M | SAP changes ([4]; 5.0 mg/kg perorally, 1 h): -31 ± 5 mmHg | HR (heart rate) ([4]; 5.0 mg/kg perorally, 1 h, 0 h value 95 ± 8): 75 ± 5 Schl/M | SAP (systolic arterial pressure) ([4]; 5.0 mg/kg perorally, 1 h, 0 h value 137 ± 7): 106 ± 2 mmHg | HR changes ([4]; 5.0 mg/kg perorally, 2 h): -24 ± 6 Schl/M | SAP changes ([4]; 5.0 mg/kg perorally, 2 h): -21 ± 2 mmHg | HR (heart rate) ([4]; 5.0 mg/kg perorally, 2 h, 0 h value 95 ± 8): 70 ± 6 Schl/M | SAP (systolic arterial pressure) ([4]; 5.0 mg/kg perorally, 2 h, 0 h value 137 ± 7): 116 ± 5 mmHg | HR changes ([4]; 5.0 mg/kg perorally, 3 h): -19 ± 5 Schl/M | SAP changes ([4]; 5.0 mg/kg perorally, 3 h): -15 ± 4 mmHg | HR (heart rate) ([4]; 5.0 mg/kg perorally, 3 h, 0 h value 95 ± 8): 76 ± 4 Schl/M | SAP (systolic arterial pressure) ([4]; 5.0 mg/kg perorally, 3 h, 0 h value 137 ± 7): 122 ± 4 mmHg | HR changes ([4]; 5.0 mg/kg perorally, 4 h): -14 ± 4 Schl/M | SAP changes ([4]; 5.0 mg/kg perorally, 4 h): -9 ± 3 mmHg | HR (heart rate) ([4]; 5.0 mg/kg perorally, 4 h, 0 h value 95 ± 8): 81 ± 4 Schl/M | SAP (systolic arterial pressure) ([4]; 5.0 mg/kg perorally, 4 h, 0 h value 137 ± 7): 128 ± 7 mmHg | NOAEL [5]: 500 mg/kg | ED50 [6]: 50.8 mg/kg | Length of action at ED50-Dose [6]: 240 min | ED (30 mmHg) [7]: 22.8 mg/kg | ED50 (Isoprenaline tachycardia; iv): 4.6 mg/kg | ED50 (Isoprenaline tachycardia; i.d.): 74.6 mg/kg | BAF, changes [8]: -34 ± 5 mL/min | BAF, length of action [8]: 109 min | BAF, maximum efficacy [8]: 1.3 ± 0.3 min | CO, changes [8]: -0.09 ± 0.02 L/min | CO, length of action [8]: 113 ± 21 min | CO, maximum efficacy [8]: 5 ± 2 min | HR changes [8]: -13 ± 10 beats/min | HR, length of action [8]: > 114 min | HR, maximum efficacy [8]: 7 ± 3 min | LV dp/dt, changes [8]: -811 ± 116 mmHg/s | LV dp/dt, length of action [8]: 107 ± 12 min | LV dp/dt, maximum efficacy [8]: 6.8 ± 5 min | LVEDP, changes [8]: 0.7 ± 0.7 mmHg | LVEDP, length of action [8]: 51 ± 28 min | LVEDP, maximum efficacy [8]: 9.3 ± 8 min | LVP, changes [8]: -38 ± 2 mmHg | LVP, length of action [8]: 103 ± 28 min | LVP, maximum efficacy [8]: 1.7 ± 0.4 min | MAP, changes [8]: -36 ± 20 mmHg | MAP, length of action [8]: 111 ± 15 min | MAP, maximum efficacy [8]: 1.2 ± 0.0 min | PAP, changes [8]: -5 ± 2 mmHg | PAP, length of action [8]: 50 ± 18 min | PAP, maximum efficacy [8]: 3.0 ± 0.1 min | SV, changes [8]: +0.3 ± 0.5 ml/min | SV, length of action [8]: 31 ± 24 min | SV, maximum efficacy [8]: 2 ± 1 min | TPVR, changes [8]: -43 ± 4 mmHg/ml | TPVR, length of action [8]: 13 ± 8 min | TPVR, maximum efficacy [8]: 1.0 ± 1.0 min | CO (cardiac minute volume), efficacy of the substance ([8]; previous value 0.83 ± 0.04): 0.74 ± 0.08 L/min | LVEDP (left ventricular end diastolic pressure), efficacy of the substance ([8]; previous value 3.8 ± 1.0): 3.1 ± 1.0 mmHg | SV (cardiac output), efficacy of the substance ([8]; previous value 6.0 ± 0.4): 6.3 ± 0.6 mL/min | PAP (blood pressure in the A. pulmonalis), efficacy of the substance ([8]; previous value 22 ± 3): 17 ± 2 mmHg | BAF (blood flow in the A femoralis), efficacy of the substance ([8]; previous value 73 ± 16): 40 ± 11 mL/min | MAP (mean arterial blood pressure), efficacy of the substance ([8]; previous value 117 ± 5): 81 ± 5 mmHg | LVP (left ventricular blood pressure), efficacy of the substance ([8]; previous value 130 ± 12): 92 ± 12 mmHg | HR (cardiac frequency), efficacy of the substance ([8]; previous value 140 ± 8): 127 ± 4 beats/min | TPVR (total peripheral vascular resistence), efficacy of the substance ([8]; previous value 142 ± 9): 99 ± 6 mmHg/ml | LV dp/dt (maximum left ventricular pressure increase rate), efficacy of the substance ([8]; previous value 2558 ± 141): 1747 ± 84 mmHg/s

CC(C)NCC(O)CON=C1CO[C@H]2[C@@H]1OC[C@H]2O[N+](=O)[O-] (stereo partly drawn) [Example 1, 4-(2-Hydroxy-3-isopropylamino-propyl)-oximino-2,6-dioxabicyclo[3.3.0]octan-8-endo-ol-nitrate]
IC50 (isolated aorta strips [1]): 24 µM | HR changes ([4]; 10.0 mg/kg perorally, 0.5 h): -15 ± 3 Schl/M | SAP changes ([4]; 10.0 mg/kg perorally, 0.5 h): -36 ± 2 mmHg | HR (heart rate) ([4]; 10.0 mg/kg perorally, 0.5 h, 0 h value 88 ± 3): 73 ± 3 Schl/M | SAP (systolic arterial pressure) ([4]; 10.0 mg/kg perorally, 0.5 h, 0 h value 134 ± 3): 98 ± 3 mmHg | HR changes ([4]; 10.0 mg/kg perorally, 1 h): -16 ± 4 Schl/M | SAP changes ([4]; 10.0 mg/kg perorally, 1 h): -32 ± 2 mmHg | HR (heart rate) ([4]; 10.0 mg/kg perorally, 1 h, 0 h value 88 ± 3): 72 ± 5 Schl/M | SAP (systolic arterial pressure) ([4]; 10.0 mg/kg perorally, 1 h, 0 h value 134 ± 3): 102 ± 4 mmHg | HR changes ([4]; 10.0 mg/kg perorally, 2 h): -14 ± 2 Schl/M | SAP changes ([4]; 10.0 mg/kg perorally, 2 h): -20 ± 1 mmHg | HR (heart rate) ([4]; 10.0 mg/kg perorally, 2 h, 0 h value 88 ± 3): 74 ± 6 Schl/M | SAP (systolic arterial pressure) ([4]; 10.0 mg/kg perorally, 2 h, 0 h value 134 ± 3): 114 ± 3 mmHg | HR changes ([4]; 10.0 mg/kg perorally, 3 h): -10 ± 3 Schl/M | SAP changes ([4]; 10.0 mg/kg perorally, 3 h): -16 ± 2 mmHg | HR (heart rate) ([4]; 10.0 mg/kg perorally, 3 h, 0 h value 88 ± 3): 78 ± 4 Schl/M | SAP (systolic arterial pressure) ([4]; 10.0 mg/kg perorally, 3 h, 0 h value 134 ± 3): 118 ± 3 mmHg | HR changes ([4]; 10.0 mg/kg perorally, 4 h): -9 ± 2 Schl/M | SAP changes ([4]; 10.0 mg/kg perorally, 4 h): -19 ± 3 mmHg | HR (heart rate) ([4]; 10.0 mg/kg perorally, 4 h, 0 h value 88 ± 3): 79 ± 5 Schl/M | SAP (systolic arterial pressure) ([4]; 10.0 mg/kg perorally, 4 h, 0 h value 134 ± 3): 115 ± 3 mmHg | IC50 (isolated aorta strips [2]; Oryctolagus cuniculus): 5.9 µM | NOAEL [5]: 500 mg/kg | ED50 [6]: 53.8 mg/kg | Length of action at ED50-Dose [6]: 240 min | ED (30 mmHg) [7]: 24.2 mg/kg | ED50 (Isoprenaline tachycardia; iv): 11 mg/kg | ED50 (Isoprenaline tachycardia; i.d.): 82.6 mg/kg
